Results: US20050084872A1 (priority 2003, published 2005)

How the values were obtained:
PPARγ [1] = test: PPARγ classifier value from expression of the 303-probe classifier gene population in 3T3L1 adipocyte cell line; format: cell-based, mouse; settings: Phase 3, high dosage (30×EC50), mean over 303 probes of logRatio divided by template logRatio, template = average of two full agonists (Group 1)
Experimental: The overall experiment was conducted in three phases (i.e., in three separate experiments conducted at three different times) as shown in Table 11 below. Three replicates were done for each of the tested compounds in each phase of the experiment.
The other PPARγ agonist, and partial agonist, compounds were used in testing the classifier population of genes. […] The PPARα agonist was included as a control.
The three replicate gene expression profiles within each phase of the experiment were first combined based on the error-weighted average. Expression profiles of two PPARγ full agonists, and four PPARγ partial agonists (in Phase 1) were chosen for classifier training, and were divided into the following two groups:
Group 1: two PPARγ full agonists (5-(4-{2-[methyl(pyridin-2-yl)amino]ethoxy} benzyl)-1,3-thiazolidine-2,4-dione and 5-{4-[2-hydroxy-2-(5-methyl-2-phenyl-1,3-oxazol-4-yl)ethoxy]benzyl}-1,3-thiazolidine-2,4-dione)
The Matlab function ANOVA1 (one-way analysis of variance) was used to calculate the pvalue (hereafter referred to as the ANOVA-pvalue) for the null hypothesis that the means of Group 1 and Group 2 are equal.

PPARγ [2] = test: PPARγ efficacy score from expression of the 22-probe efficacy-related gene population in cultured 3T3L1 adipocytes; format: cell-based, mouse; settings: mean over 22 probes of logRatio divided by template logRatio, template = average of Rosiglitazone and {2-[2-(4-phenoxy-2-propylphenoxy)ethyl]-1H-indol-5-yl}acetic acid
Experimental: Twenty four hours after the cells were contacted with one or other of the foregoing agents the cells were harvested and RNA extracted therefrom.
Thus, an efficacy value a PPARγ agonist, or partial agonist, was calculated in the following manner. […] This mean value was the PPARγ efficacy value for the PPARγ agonist, or partial agonist.
A chi-square fitting was also used to calculate the efficacy value for each tested PPARγ agonist, or partial agonist. The chi-square fitting formula used was: [formula]
Where Ri, σRi stand for the logRatio and error for logRatio of the full template. Xi and σXi stand for the logRatio and error for logRatio of the testing compound.
A PPARα agonist was included as a control.

Structure (SMILES): CN(CCOc1ccc(CC2SC(=O)NC2=O)cc1)c1ccccn1 (stereo not shown) [Rosiglitazone, 5-(4-{2-[methyl(pyridin-2-yl)amino]ethoxy}benzyl)-1,3-thiazolidine-2,4-dione]
- Classifier Value (PPARγ [1]): 0.850
- Efficacy Score (PPARγ [2]): 0.967

Structure (SMILES): CCCc1cc(Oc2ccccc2)ccc1OCCc1cc2cc(CC(=O)O)ccc2[nH]1 [Agonist 1, {2-[2-(4-phenoxy-2-propylphenoxy)ethyl]-1H-indol-5-yl}acetic acid]
- Classifier Value (PPARγ [1]): 0.881
- Efficacy Score (PPARγ [2]): 1.033
